US20060263881A1, “Methods of expanding and selecting disease associated T-Cells” (priority 1998, published 2006)
Values joined by “and” are separate entries in the source; they are usually repeats but may differ in a detail not shown here. Identical values can stand only once.

Key:
[1] = test system: long term cultured gut T-cell cultures C1x, C2x, C4.2; type: cell-based, human
[2] = test system: transmembrane TNFα on SP2/O myeloma cells; conditions: murine SP2/O myeloma cells with cleavage-resistant transmembrane TNFα; cited from earlier work
[3] = test system: in vivo activated gut T-lymphocytes (primary cultures C11.3, C12.1, C8.1, C8.3) from patients with Crohn's disease; type: cell-based, human; conditions: 24 h
human T-cell lines = test: Cytolysis after addition of Infliximab and incubation with fresh human serum (complement); type: cell-based; conditions: versus murine SP2/O myeloma cell results
[4] = test system: gut T-cell cultures from patients with Crohn's disease; type: cell-based, human
[5] = test system: gut T-cell cultures from patients with Crohn's disease

Infliximab: chimeric TNFα antibody with high avidity for transmembrane TNFα (obtained from Centocor)
SEA induced cytokine production after addition of Infliximab (in words) [1]: reduced
Infliximab molecules bound per cell (Scatchard analyses) [2]: about 35000 molecules per cell
Reduction of IFNγ production by Infliximab [3]: 68% and 43% and 49% and 56%
Reduction of TNFα production by Infliximab [3]: 97%
Complement activation / cytolysis by binding of Infliximab (in words) (human T-cell lines): could not confirm
Proliferation rate (in words) [4]: did not change
Amount of propidium iodide and Annexin-FITC positive cells compared with SEA alone (in words) [5]: did not increase
Induction of apoptosis (in words) [5]: did not induce any apoptosis
